Results as given in patent US20060029690A1, “Buckwheat compound and method of obtaining the same for treatment of hyperglycemia” (priority 2004, published 2006).
Like-named read-outs stand apart in the source and are kept apart here.

Assays:
STZ diabetic rats [1] = assay: Fasting blood glucose concentration in STZ diabetic rats after 7 days (Example 1); format: in vivo, rat; conditions: oral administration for 7 days, metformin 0.2 g/kg, extracts 5.0 g/kg
Protocol: (§1) The treatments were administered once every day.
At day 7, the rats in groups 1, 2 and 3 were fasted and blood samples were taken at 2.5 hours and 5 hours after fasting began. Blood glucose concentrations (mg/dl) in these samples were then determined.

STZ diabetic rats [2] = assay: Glucose tolerance test and AUC in STZ diabetic rats (day 14 and day 21)
Protocol: (§6) Male rats (Sprague-Dwaley, male), weighing 120 to 140 g, were purchased from VTLF Experiment Animal Technology Center Company Ltd., Beijing P. R. China The animals were made diabetic by a single intraperitoneal injection of streptozocin (freshly prepared in 0.1 M citrate buffer (pH 4.5) at the dose of 58 mg/kg). After a period of 4 days, the treated rats were fasted for 2.5 hours, then blood samples were taken from the treated rats intravenously. Blood glucose concentrations were determined using the Glucose Oxidase Peroxidase method. The rats with blood glucose concentrations above 190 mg/dl were marked as diabetic rats and used for further experiments.
(§7) The rats were divided into 6 groups of 10 rats per group. The difference in the average blood glucose concentrations among the 6 groups was less than 10 mg/dl. Group 1 served as the negative control and received water. […] The remaining four groups received reagents (1) to (4) as listed in Section 1.3.1 above. Reagents (1) and (2) were administered at a dose of 4 g/kg, while (3) and (4) were administered at a dose of 5 g/kg. The treatments were administered once every day.
At day 14, glucose tolerance tests were conducted. The rats were fasted for 1 hour before receiving the reagents at dosages of 2.0 g/kg (p.o.). Blood samples were taken at 0, 30, 60, and 120 min after receiving the reagents. Blood glucose concentrations (mg/dl) were determined and the related AUC were calculated.
At day 21, glucose tolerance tests were conducted. The rats were fasted for 1 hour, then received their respective reagents at the dose of 5 g/kg (p.o.). 2.5 hours after administration of reagent the rats received glucose at a dose of 2 g/kg (p.o.). Blood samples were taken at 0, 30, and 120 minutes after glucose administration. Blood glucose concentrations (mg/dl) were determined and the related AUC were calculated.

STZ diabetic rats [3] = conditions: 7 days oral, dosage 0.2 g/kg
Protocol: The mice were divided according to the blood glucose concentration under fasting conditions. The difference between the average blood glucose concentrations of the 4 groups of rats was less than 10 mg/dl.
At day 7, fasting blood glucose concentration was tested after 2.5 and 5 hours of fasting. The change of glucose concentration by percentage was compared against the control group.

STZ diabetic rats [4] = assay: Oral glucose tolerance test in STZ diabetic rats after 12 days (Example 2); format: in vivo, rat; conditions: 12 days oral, dosage 0.2 g/kg
Protocol: […] were divided according to the blood glucose concentration under fasting conditions.
The STZ diabetic rats were divided into 4 groups, each group having 10 rats.
At day 12, oral glucose tolerance tests (2.0 g/kg) were conducted. […] 1 hour later, the rats received glucose at the dose of 2 g/kg (p.o.). Blood samples were taken at 0, 30 and 120 min respectively.

alloxan diabetic mice [5] = assay: Blood glucose level of alloxan diabetic mice at day 7 and 14; format: in vivo; conditions: metformin 200 mg/kg
Protocol: (§2) The animals were made diabetic by a single intravenous injection of 70 mg/kg alloxan into the tail vein. After a period of 4 days, the treated mice were fasted for 2 hours, then the blood sample was taken from the treated mice intravenously. The blood glucose concentration was determined using Glucose Oxidase Peroxidase method. The mice with the blood glucose concentration above 200 mg/dl were marked diabetic mice and were used for further experiments.
(§3) The mice were divided into 5 groups, each group having 9 mice.
(§4) Group 5 received reagent (3) at the dose of 5 g/kg (p.o.).
(§5) At day 7 and 14, measurements of blood glucose concentration were taken after fasting for 2.5 and 5 hours. The change of glucose concentration by percentage was compared against the control group. Blood triglyceride and cholesterol concentrations were tested at day 14 (enzymatic method). Glucose tolerance test (2.0 g/kg, p.o.) was conducted at day 19. First, the mice were fasted for half an hour before the administration of control and test substances. Two and half hours later, the mice received glucose at the dose of 2 g/kg, po. Blood samples were taken at 0, 30, 60, 120 minutes after administration of the glucose. Blood glucose concentration (mg/dl) of the mice were determined and the related measurements of Area Under the Curve (AUC) were estimated. The serum superoxide dismutase (SOD) level of blood samples taken at 0 minute was tested. Glucose tolerance test was conducted again at day 22. The mice were fasted for 1 hour before administration. One and half hour after administration, the mice received glucose at the dose of 2 g/kg, po Blood samples were taken at 0, 30 60, 120 minutes.

STZ diabetic rats [6] = assay: Non-fasting blood glucose, serum SOD activity and catalase (CAT) activity in STZ diabetic rats at day 19; format: in vivo, rat; conditions: oral administration for 19 days
Protocol: as §1
At day 19, blood samples were taken, and blood glucose concentrations without fasting, the activities of SOD and catalase (CAT) levels were determined.

alloxan diabetic mice [7] = assay: Glucose tolerance test and AUC in alloxan diabetic mice (day 19 and day 22); format: in vivo; conditions: for Blood glucose, glucose tolerance test, 0 min: metformin 200 mg/kg, others 5 g/kg
Protocol: as §2, §3, §4, §5

alloxan diabetic mice [8] = assay: Blood lipid level (cholesterol, triglyceride) of alloxan diabetic mice at day 14; format: in vivo; conditions: metformin 200 mg/kg, others 5000 mg/kg
Protocol: as §2, §3, §4
as §5, with “The serum superoxide dismutase (SOD) level of blood samples taken at 0 minute was tested. Glucose tolerance test was conducted again at day 22. The mice were fasted for 1 hour before administration. One and half hour after administration, the mice received glucose at the dose of 2 g/kg, po Blood samples were taken at 0, 30 60, 120 minutes.” left out

alloxan diabetic mice [9] = assay: Serum SOD level of alloxan diabetic mice at day 19; format: in vivo; conditions: metformin 200 mg/kg, others 5000 mg/kg
Protocol: as §2, §3, §4
as §5, with “The serum superoxide dismutase (SOD) level of blood samples taken at 0 minute was tested. Glucose tolerance test was conducted again at day 22. The mice were fasted for 1 hour before administration. One and half hour after administration, the mice received glucose at the dose of 2 g/kg, po Blood samples were taken at 0, 30 60, 120 minutes.” left out

[10] = Body weight of STZ diabetic rats after 9, 14 and 21 days; conditions: STZ diabetic rat; metformin 0.2 g/kg, flavonoids 4.0 g/kg, extracts 5.0 g/kg
Protocol: as §6, §7

[11] = oral administration for 14 days
[12] = oral administration for 21 days
[13] = day 19, glucose 2 g/kg p.o. 2.5 h after administration
[14] = day 22, glucose 2 g/kg p.o. 1.5 h after administration

## CN(C)C(=N)N=C(N)N [Metformin, metformin]
STZ diabetic rats [1]; flavonoids 4.0 g/kg
  Fasting blood glucose concentration, 5.0 hr.: 185.6 ± 78.8 mg/dL
STZ diabetic rats [1]; flavonoids A and B 4.0 g/kg
  fasting blood glucose concentration, 2.5 hr.: 261.1 ± 45.7 mg/dL
STZ diabetic rats [2]; [11]
  AUC of blood glucose: 652.5 ± 133.8 mg·h/dL
  blood glucose concentration, glucose tolerance test, 30 min: 356.2 ± 93.3 mg/dL
  blood glucose concentration, glucose tolerance test, 60 min: 320.9 ± 64.6 mg/dL
  blood glucose concentration, glucose tolerance test, 120 min: 296.6 ± 72.6 mg/dL
STZ diabetic rats [2]; oral administration for 14 days, metformin 0.2 g/kg, flavonoids 4.0 g/kg, extracts 5.0 g/kg
  blood glucose concentration, glucose tolerance test, 0 min: 341.8 ± 44.8 mg/dL
STZ diabetic rats [2]; [12]
  AUC of blood glucose: 645.4 ± 122.0 mg·h/dL
  blood glucose concentration, oral glucose tolerance, 30 min: 358.0 ± 77.3 mg/dL
  blood glucose concentration, oral glucose tolerance, 120 min: 279.8 ± 51.6 mg/dL
STZ diabetic rats [3]
  fasting blood glucose concentration, 2.5 hr.: 357.2 ± 51.5 mg/dL
  fasting blood glucose concentration, 5 hr.: 288.9 ± 68.8 mg/dL
STZ diabetic rats [3]; versus control
  reduction of blood glucose concentration by percentage, 2.5 hr.: (11.7) %
  reduction of blood glucose concentration by percentage, 5 hr.: (22.5) %
STZ diabetic rats [4]
  AUC: 800.9 ± 103.2 mg·h/dL
  Fasting blood glucose concentration, oral glucose tolerance, 0 min: 398.4 ± 36.6 mg/dL
  Fasting blood glucose concentration, oral glucose tolerance, 30 min: 458.4 ± 59.7 mg/dL
  Fasting blood glucose concentration, oral glucose tolerance, 120 min: 323.9 ± 51.2 mg/dL
STZ diabetic rats [4]; versus control
  reduction of AUC by percentage: (14.2) %
Alloxan diabetic mice [5]; continuously for 7 and 14 days, extracts 5 g/kg
  effective in lowering blood glucose concentration in alloxan diabetic mice (in words): significant glucose-lowering effect
Alloxan diabetic mice [5]; day 7, 2.5 hr, p.o. once daily, extracts and flavonoid B 5000 mg/kg
  Blood glucose concentration at day 7, 2.5 hr after administering: 216.8 ± 78.2 mg/dL
Alloxan diabetic mice [5]; day 7, 5 hr, p.o. once daily, others 5000 mg/kg
  Blood glucose concentration at day 7, 5 hr after administering: 182.8 ± 88.1 mg/dL
Alloxan diabetic mice [5]; day 14, 2.5 hr, p.o. once daily, others 5000 mg/kg
  Blood glucose concentration at day 14, 2.5 hr after administering: 281.5 ± 60.9 mg/dL
Alloxan diabetic mice [5]; day 14, 5 hr, p.o. once daily, others 5000 mg/kg
  Blood glucose concentration at day 14, 5 hr after administering: 221.7 ± 65.9 mg/dL
Alloxan diabetic mice [5]; versus control group, day 7, 2.5 hr, others 5000 mg/kg
  blood glucose change by percentage, day 7, 2.5 hr: 34%
Alloxan diabetic mice [5]; versus control group, day 7, 5 hr, others 5000 mg/kg
  blood glucose change by percentage, day 7, 5 hr: 32.4%
Alloxan diabetic mice [5]; versus control group, day 14, 2.5 hr, others 5000 mg/kg
  blood glucose change by percentage, day 14, 2.5 hr: 21.2%
Alloxan diabetic mice [5]; versus control group, day 14, 5 hr, others 5000 mg/kg
  blood glucose change by percentage, day 14, 5 hr: 21.3%
STZ diabetic rats [6]
  CAT activity: 64.6 ± 12.5 U/gHb
  Serum SOD activity: 164.8 ± 16.9 NU/ml
STZ diabetic rats [6]; metformin 0.2 g/kg, flavonoids 4.0 g/kg, extracts 5.0 g/kg
  Non-fasting blood glucose concentration: 340.5 ± 40.7 mg/dL
Alloxan diabetic mice [7]; [13]
  Blood glucose, glucose tolerance test, 30 min: 544.4 ± 45.3 mg/dL
  Blood glucose, glucose tolerance test, 60 min: 512.0 ± 76.9 mg/dL
  Blood glucose, glucose tolerance test, 120 min: 408.4 ± 71.3 mg/dL
  Blood glucose, glucose tolerance test, 0 min: 346.8 ± 68.3 mg/dL
Alloxan diabetic mice [7]; [14]
  Blood glucose, glucose tolerance test, 30 min: 474.5 ± 74.4 mg/dL
  Blood glucose, glucose tolerance test, 60 min: 450.7 ± 80.1 mg/dL
  Blood glucose, glucose tolerance test, 120 min: 358.6 ± 88.3 mg/dL
  Blood glucose, glucose tolerance test, 0 min: 377.6 ± 87.6 mg/dL
Alloxan diabetic mice [8]
  Blood cholesterol: 159.8 ± 48.7 mg/dL
  Blood triglyceride: 132.8 ± 34.2 mg/dL
Alloxan diabetic mice [9]
  Serum SOD: 78.3 ± 26.5 u/mg
[10]
  weight at day 9: 203.3 ± 22.3 g
  weight at day 14: 200.4 ± 29.4 g
